Test results reported in US6878713B2, “Generation triple-targeting, chiral, broad-spectrum antimicrobial 7-substituted piperidino-quinolone carboxylic acid derivatives, their preparation, compositions and use as medicaments” (Wockhardt Limited, priority 2001, dated 2005).
Values after ≈ are worked out from the molar mass of the structure shown.

Key:
[1] = tested on: Fluoroquinolone Sensitive Strains; experiment: In-vitro antimicrobial test (MIC, two-fold serial agar dilution, NCCLS), Table 17; format: cell-based
Description: The test method was in accordance with the standard NCCLS protocol (Methods for Dilution Antimicrobial Susceptibility Tests for Bacteria that grow Aerobicially, Approved Standards, M7-A5, Fifth Edition, January 2000).
The antibacterial activities (minimum inhibitory concentration: MIC, […]) were determined by using the two-fold serial agar dilution method recommended by NCCLS. The media used for preculture and main culture were Tryptic Soya broth (Difco) and Mueller Hinton medium (Difco), respectively. The Mueller Hinton agar was supplemented with 5% sheep blood for streptococci. Overnight cultures were diluted with buffered saline (pH 7.2) to the final cell density of 5×10^6-10^7 CFU/ml, and each bacterial suspension was applied with a replicator (Denley's multipoint inoculator, UK) onto a series of Mueller-Hinton agar plates containing antibacterial agents at various concentrations. Final inoculum was approximately 10^4 CFU/spot. The plates were incubated for 18 hrs at 37° C. The MIC was defined as the lowest concentration of an antibacterial agent that inhibits the development of visible microbial growth on agar.

[2] = Escherichia coli, ATCC25922, E. coli ATCC 25922
[3] = Staphylococcus aureus, ATCC 25923 / MSSA, MSSA ATCC 25923
[4] = Streptococcus pneumoniae, ATCC49619, S. pneumoniae ATCC 49619

SMILES	melting point	MIC [1, 2]	MIC [1, 3]	MIC [1, 4]	further results
COc1c(N2CCC(N(C)C)C(C)(C)C2)c(F)cc2c(=O)c(C(=O)O)cn(C3CC3)c12 (stereo not drawn) [Compound 38, 1-Cyclopropyl-6-fluoro-1,4-dihydro-8-methoxy-7-(4-dimethylamino-3,3-dimethyl-1-piperidinyl)-4-oxo-quinoline-3-carboxylic acid]	210 °C	–	–	–	–
COc1c(N2CC(C)C(N)C(C)C2)c(F)cc2c(=O)c(C(=O)O)cn(C3CC3)c12 (stereo not drawn) [Example 33, 1-cyclopropyl-6-fluoro-1,4-dihydro-8-methoxy-7-(4-amino-3,5-dimethyl-1-piperidinyl)-4-oxo-quinoline-3-carboxylic acid]	238 to 240 °C	–	–	–	–
Cc1c(N2CCC(O)C(C)C2)c(F)cc2c(=O)c(C(=O)O)cn(C3CC3)c12 (mixture of isomers) [Compound 92, cis/trans-1-Cyclopropyl-6-fluoro-8-methyl-7-(4-hydroxy-3-methyl-1-piperidinyl)-1,4-dihydro-4-oxo-quinoline-3-carboxylic acid]	–	–	–	–	MICs ([1]; E. coli ATCC 25922): 0.05 µg/mL; MICs ([1]; MSSA ATCC 25923): 0.1 µg/mL
Cc1c(N2CCC(N(C)C)C(C)(C)C2)c(F)cc2c(=O)c(C(=O)O)cn(C3CC3)c12 (stereo not drawn) [Compound 116, 1-Cyclopropyl-6-fluoro-1,4-dihydro-8-methyl-7-(4-dimethylamino-3,3-dimethyl-1-piperidinyl)-4-oxo-quinoline-3-carboxylic acid]	209 to 210 °C	–	–	–	–
COc1c(N2CCC(NC3CC3)C(C)C2)c(F)c(N)c2c(=O)c(C(=O)O)cn(C3CC3)c12 (stereo not drawn) [Compound 62, 5-Amino-1-cyclopropyl-6-fluoro-1,4-dihydro-8-methoxy-7-(4-cyclopropylamino-3-methyl-1-piperidinyl)-4-oxo-quinoline-3-carboxylic acid]	218 to 220 °C	–	–	–	–
COc1c(N2CC(C)C(O)C(C)C2)c(F)cc2c(=O)c(C(=O)O)cn(C3CC3)c12 (stereo not drawn) [Compound 145, 1-Cyclopropyl-6-fluoro-1,4-dihydro-8-methoxy-7-(4-hydroxy-3,5-dimethyl-1-piperidinyl)-4-oxo-quinoline-3-carboxylic acid]	–	1.56 µg/mL (≈ 3.86 µM)	0.025 µg/mL (≈ 0.0618 µM)	0.4 µg/mL (≈ 0.989 µM)	–
COc1c(N2CCC(O)C(C)C2)c(F)c(N)c2c(=O)c(C(=O)O)cn(C3CC3)c12 (stereo not drawn) [Compound 135, 5-Amino-1-cyclopropyl-6-fluoro-1,4-dihydro-8-methoxy-7-(4-hydroxy-3-methyl-1-piperidinyl)-4-oxo-quinoline-3-carboxylic acid]	240 to 244 °C	–	–	–	–
COc1c(N2CC[C@@H](N)[C@H](C)C2)c(F)cc2c(=O)c(C(=O)O)cn(C3CC3)c12 (relative stereo) [Compound 2, trans-1-Cyclopropyl-6-fluoro-1,4-dihydro-8-methoxy-7-(4-amino-3-methyl-1-piperidinyl)-4-oxo-quinoline-3carboxylic acid]	240 to 242 °C	–	–	–	–
COc1c(N2CC(C)C(NC3CC3)C(C)C2)c(F)cc2c(=O)c(C(=O)O)cn(C3CC3)c12 (stereo not drawn) [Compound 48, 1-Cyclopropyl-6-fluoro-1,4-dihydro-8-methoxy-7-(4-cyclopropylamino-3,5-dimethyl-1-piperidinyl)-4-oxo-quinoline-3-carboxylic acid]	–	6.25 µg/mL (≈ 14.1 µM)	1.56 µg/mL (≈ 3.52 µM)	> 6.25 µg/mL	–
CCC1(C)CN(c2c(F)c(N)c3c(=O)c(C(=O)O)cn(C4CC4)c3c2OC)CCC1N (stereo not drawn) [Compound 77, 5-Amino-1-cyclopropyl-6-fluoro-1,4-dihydro-8-methoxy-7-(4-amino-3-ethyl-3-methyl-1-piperidinyl)-4-oxo-quinoline-3-carboxylic acid]	210 °C (dec.)	–	–	–	–
COc1c(N2CCC(N)C(C)C2)c(F)c(N)c2c(=O)c(C(=O)O)cn(C3CC3)c12 (stereo not drawn) [Compound 53, 5-Amino-1-cyclopropyl-6-fluoro-1,4-dihydro-8-methoxy-7-(4-amino-3-methyl-1-piperidinyl)-4-oxo-quinoline-3-carboxylic acid]	260 to 262 °C	–	–	–	–
Cc1c(N2CC[C@H](N)[C@H](C)C2)c(F)cc2c(=O)c(C(=O)O)cn(C3CC3)c12 (relative stereo) [Compound 99, cis-1-Cyclopropyl-6-fluoro-1,4-dihydro-8-methyl-7-(4-amino-3-methyl-1-piperidinyl)-4-oxo-quinoline-3-carboxylic acid]	224 to 228 °C	–	–	–	–
CNC1CCN(c2c(F)c(N)c3c(=O)c(C(=O)O)cn(C4CC4)c3c2OC)CC1(C)C (stereo not drawn) [Compound 73, 5-Amino-1-cyclopropyl-6-fluoro-1,4-dihydro-8-methoxy-7-(4-methylamino-3,3-dimethyl-1-piperidinyl)-4-oxo-quinoline-3-carboxylic acid]	250 °C (dec.)	–	–	–	–
CCNC1C(C)CN(c2c(F)cc3c(=O)c(C(=O)O)cn(C4CC4)c3c2OC)CC1C (stereo not drawn) [Example 38, 1-cyclopropyl-6-fluoro-1,4-dihydro-8-methoxy-7-(4-ethylamino-3,5-dimethyl-1-piperidinyl)-4-oxo-quinoline-3-carboxylic acid]	250 to 252 °C	–	–	–	–
CCNC1CCN(c2c(F)cc3c(=O)c(C(=O)O)cn(C4CC4)c3c2OC)CC1(C)C (stereo not drawn) [Compound 36, 1-Cyclopropyl-6-fluoro-1,4-dihydro-8-methoxy-7-(4-ethylamino-3,3-dimethyl-1-piperidinyl)-4-oxo-quinoline-3-carboxylic acid]	230 to 232 °C	–	–	–	–
COc1c(N2CC(C)C(NC3CC3)C(C)C2)c(F)cc2c(=O)c(C(=O)O)cn(C3CC3)c12 (stereo not drawn) [Example 41, 1-cyclopropyl-6-fluoro-1,4-dihydro-8-methoxy-7-(4-cyclopropylamino-3,5-dimethyl-1-piperidinyl)-4-oxo-quinoline-3-carboxylic acid]	240 to 242 °C	–	–	–	–
CCC1CN(c2c(F)c(N)c3c(=O)c(C(=O)O)cn(C4CC4)c3c2OC)CCC1O (stereo not drawn) [Compound 137, 5-Amino-1-cyclopropyl-6-fluoro-1,4-dihydro-8-methoxy-7-(4-hydroxy-3-ethyl-1-piperidinyl)-4-oxo-quinoline-3-carboxylic acid]	217 to 219 °C	–	–	–	–
COc1c(N2CCC(N)C(C)(C)C2)c(F)cc2c(=O)c(C(=O)O)cn(C3CC3)c12 (racemic) [Compound 17, (±)-1-Cyclopropyl-6-fluoro-1,4-dihydro-8-methoxy-7-(4-amino-3,3-dimethyl-1-piperidinyl)-4-oxo-quinoline-3-carboxylic acid]	–	0.4 µg/mL (≈ 0.991 µM)	0.4 µg/mL (≈ 0.991 µM)	–	–
CNC1CCN(c2c(F)cc3c(=O)c(C(=O)O)cn(C4CC4)c3c2C)CC1C (stereo not drawn) [Compound 113, 1-Cyclopropyl-6-fluoro-1,4-dihydro-8-methyl-7-(4-methylamino-3-methyl-1-piperidinyl)-4-oxo-quinoline-3-carboxylic acid]	233 to 235 °C	–	–	–	–
COc1c(N2CC(C)C(O)C(C)(C)C2)c(F)cc2c(=O)c(C(=O)O)cn(C3CC3)c12 (stereo not drawn) [Compound 147, 1-Cyclopropyl-6-fluoro-1,4-dihydro-8-methoxy-7-(4-hydroxy-3,3,5-trimethyl-1-piperidinyl)-4-oxo-quinoline-3-carboxylic acid]	–	0.4 µg/mL (≈ 0.956 µM)	< 0.006 µg/mL	0.1 µg/mL (≈ 0.239 µM)	–
Cc1c(N2CCC(N)C(C)(C)C2)c(F)c(N)c2c(=O)c(C(=O)O)cn(C3CC3)c12 (racemic) [Compound 131, (±)-5-Amino-1-cyclopropyl-6-fluoro-1,4-dihydro-8-methyl-7-(4-amino-3,3-dimethyl-1-piperidinyl)-4-oxo-quinoline-3-carboxylic acid]	–	1.56 µg/mL (≈ 3.88 µM)	0.8 µg/mL (≈ 1.99 µM)	–	–
CCn1cc(C(=O)O)c(=O)c2cc(F)c(N3CC(C)C(NC)C(C)C3)c(OC)c21 (stereo not drawn) [Compound 46, 1-Ethyl-6-fluoro-1,4-dihydro-8-methoxy-7-(4-methylamino-3,5-dimethyl-1-piperidinyl)-4-oxo-quinoline-3-carboxylic acid]	–	0.1 µg/mL (≈ 0.247 µM)	0.05 µg/mL (≈ 0.123 µM)	0.1 µg/mL (≈ 0.247 µM)	–
CCOC(=O)NC1CCN(c2c(F)c(N)c3c(=O)c(C(=O)O)cn(C4CC4)c3c2OC)CC1(C)C (stereo not drawn) [Compound 70, 5-Amino-1-cyclopropyl-6-fluoro-1,4-dihydro-8-methoxy-7-(4-ethoxycarbonylamino-3,3-dimethyl-1-piperidinyl)-4-oxo-quinoline-3-carboxylic acid]	–	0.4 µg/mL (≈ 0.815 µM)	0.05 µg/mL (≈ 0.102 µM)	0.2 µg/mL (≈ 0.408 µM)	–
CCc1c(N2CC[C@H](O)[C@H](C)C2)c(F)cc2c(=O)c(C(=O)O)cn(C3CC3)c12 (relative stereo) [Compound 120, cis-1-Cyclopropyl-6-fluoro-8-ethyl-7-(4-hydroxy-3-methyl-1-piperidinyl)-1,4-dihydro-4-oxo-quinoline-3-carboxylic acid]	–	0.8 µg/mL (≈ 2.06 µM)	0.1 µg/mL (≈ 0.257 µM)	0.8 µg/mL (≈ 2.06 µM)	–
COc1c(N2CCC(NC3CC3)C(C)(C)C2)c(F)c(N)c2c(=O)c(C(=O)O)cn(C3CC3)c12 (stereo not drawn) [Compound 75, 5-Amino-1-cyclopropyl-6-fluoro-1,4-dihydro-8-methoxy-7-(4-cyclopropylamino-3,3-dimethyl-1-piperidinyl)-4-oxo-quinoline-3-carboxylic acid]	–	0.2 µg/mL (≈ 0.436 µM)	0.05 µg/mL (≈ 0.109 µM)	0.2 µg/mL (≈ 0.436 µM)	–
Cc1c(N2CCC(N)C(C)(C)C2)c(F)c(N)c2c(=O)c(C(=O)O)cn(C3CC3)c12 (single isomer, unassigned; (-)) [Compound 133, (−)-5-Amino-1-cyclopropyl-6-fluoro-1,4-dihydro-8-methyl-7-(4-amino-3,3-dimethyl-1-piperidinyl)-4-oxo-quinoline-3-carboxylic acid]	–	0.4 µg/mL (≈ 0.994 µM)	0.025 µg/mL (≈ 0.0621 µM)	0.2 µg/mL (≈ 0.497 µM)	–
